We go through four compounds from patent US20250345454A1, “CHEMOTHERAPEUTIC PACLITAXEL BASED MICELLULAR NANOPARTICLES” (Peptinovo Biopharma Inc., priority 2024, published 2025).

For one series, the system named is SK-OV-3 cells. Description: SK-OV-3 growth inhibition, 72 hr, MTT assay. The series is classed as cell-based, human. As to conditions: for SK-OV-3 growth inhibition, comparison of anchor lipids: conjugates tested as C-m-HDLs prepared by solvent lyophilization, FIGS. 12A and 12B; for SK-OV-3 growth inhibition, comparison of peptides: tested as C-m-HDLs loaded with conjugate 20 made with the named peptide, FIG. 13. Here is the method:
In this Example, the mole portions of components in the C-m-HDLs prepared by solvent lyophilization were POPC: egg SM: peptide: conjugate 5.6:2.4:2:1. 20 mM stock solutions of POPC and of egg SM were prepared in tert-butyl alcohol: water (8:2 v/v). Peptide SEQ ID NO: 25 (acetate counter ion) was dissolved in tert-butyl alcohol/water/acetic acid (80:20:7 v/v) to obtain a 10 mM peptide solution. Conjugates 20 and 30 were separately dissolved in tert-butyl alcohol: water (95:5) to a final concentration of 10 mM.
For C-m-HDL preparation, 2.8 mL of 20 mM POPC, 1.2 mL of 20 mM egg SM, 2 mL of 10 mM peptide, 1 mL of 10 mM conjugate, and 0.3 mL acetic acid were combined in a 20 mL glass vial. The combined solution was frozen at ≥−70° C. for ≥1 hr. The frozen vial was placed in the chamber of a lyophilizer set at a shelf temperature of −20° C. A vacuum between 100 to 150 mTorr was applied for >20 hr. The shelf temperature was raised to −10° C. and the vacuum was continued for >15 hr. The shelf temperature was then raised to 20° C. and the vacuum continued for 24 hr. The dried cake was dissolved in PBS to obtain C-m-HDLs. The uniformity of the C-m-HDLs was evaluated by SEC (Acclaim™ SEC-1000, 300 mm×4.6 mm column, 0.3 mL/min PBS mobile phase, 210 nm and 280 nm UV detection) and by dynamic light scattering. The phospholipid content was established with a commercially available, enzyme-based, colorimetric assay kit. Peptide and conjugate content were established by HPLC.
Two C-m-HDLs were prepared as above, containing either Conjugate 20 or Conjugate 30 were then tested for their growth inhibition activity against SK-OV-3 cells (ATCC). SK-OV-3 cells were grown in McCoy's-5A media supplemented with 10% fetal bovine serum and maintained in a 37° C. incubator under a 5% CO2 atmosphere. To assess growth inhibition, the growth medium of cells grown in 96-well plates was supplemented with various concentrations of C-m-HDL (cmpd 20), C-m-HDL (compd 30) or paclitaxel from a DMSO stock solution. The 96-well plates were incubated for 72 hr. The relative amount of live cells in each of the wells after 72 hr was determined with the MTT assay. The concentrations of test articles causing 50% growth inhibition (GIso) were obtained by performing a non-linear fit of the MTT results to a 4-parmeter logistic function. The results are plotted in FIG. 11.

For a further series, the system named is Sprague-Dawley rats. Description: Adrenal gland functionality in rats after dosing (ACTH challenge, plasma corticosterone). Format: in vivo. The following applies: 4 mg/kg on Days 1, 4 and 7; ACTH challenge Day 11; paclitaxel intraperitoneal, C-m-HDL intravenous; FIG. 10. Here is the method:
A paclitaxel stock solution was prepared by dissolving paclitaxel in 1:1 (v/v) Cremophor EL/ethanol (95%) to a final paclitaxel concentration of […] (C-E paclitaxel solution). Next, a paclitaxel solution suitable for dosing was prepared by combining one volume of the C-E paclitaxel solution with 3 volumes of 0.9 weight % NaCl. This solution is designated as “Control”.
C-m-HDL (cmpd 20) was prepared as per Example 12.
The in vivo study was conducted in rats in accordance with the current guidelines for animal welfare (Guide for the Care and Use of Laboratory Animals, 8th Ed., 2011). The procedures used in the study were reviewed and approved by the Institutional Animal Care and Use Committee.
Eighteen (18) female Sprague-Dawley rats were randomly assigned to 3 groups of 6 animals each. All animals were lightly anesthetized using isoflurane and dosed intraperitoneally on Days 1, 4, and 7 with paclitaxel at 4 mg/kg in a dose volume of 1.5 mL/kg, or intravenously with C-m-HDL (cmpd 20) at 4 mg/kg or vehicle (saline) via the tail vein using a dose volume of 1.5 mL/kg. Group 1 received saline, Group 2 received paclitaxel, and Group 3 received C-m-HDL (cmpd 20). On Day 11, rats in each group were lightly anesthetized using isoflurane within their home cage to minimize potential stress responses. […] Plasma corticosterone content was determined with a commercially available ELISA kit.

Where no end group is shown, it is not given here. [ ]: non-standard residue; d: D form. Aib = CC(C)(N)C(=O)O

On to `CC(=O)O[C@H]1C(=O)[C@@]2(C)[C@H]([C@H](OC(=O)c3ccccc3)[C@]3(O)C[C@H](OC(=O)[C@H](OC(=O)Oc4cc(C)c5c(c4)CC[C@@](C)(CC/C=C(\C)CC/C=C(\C)CCC=C(C)C)O5)[C@@H](NC(=O)c4ccccc4)c4ccccc4)C(C)=C1C3(C)C)[C@]1(OC(C)=O)CO[C@@H]1C[C@@H]2O` [Conjugate 20, paclitaxel-delta-tocotrienol conjugate], for which the “SK-OV-3 growth inhibition, comparison of anchor lipids” value in the series on SK-OV-3 cells was “equivalent results”; with SK-OV-3 cells (listed as paclitaxel-delta-tocotrienol), “essentially equivalent”.

Turning to `CC(=O)O[C@H]1C(=O)[C@@]2(C)[C@H]([C@H](OC(=O)c3ccccc3)[C@]3(O)C[C@H](OC(=O)[C@H](O)[C@@H](NC(=O)c4ccccc4)c4ccccc4)C(C)=C1C3(C)C)[C@]1(OC(C)=O)CO[C@@H]1C[C@@H]2O` [paclitaxel], the “adrenal function / adrenal toxicity” value in the series with Sprague-Dawley rats was “lack of adrenal toxicity”.

“DVFQKLXELFNQLLEKWKQV (DVFQKL[Aib]ELFNQLLEKWKQV) [SEQ ID NO: 25, amphiphilic, alpha-helical peptide used to prepare C-m-HDLs]”: the “SK-OV-3 growth inhibition, comparison of peptides” value in the series on SK-OV-3 cells is “substantially the same”.

For “DVFQKLXELFNQLXEKWKQV (DVFQKL[Aib]ELFNQL[Aib]EKWKQV) [SEQ ID NO: 35, amphiphilic, alpha-helical peptide used to prepare C-m-HDLs]”, the “SK-OV-3 growth inhibition, comparison of peptides” value with SK-OV-3 cells is listed as “substantially the same”.
